The text below walks through data of patent US20110306638A1, “BENZISOXAZOLE PIPERIDINYL DERIVATIVES, PHARMACEUTICAL COMPOSITIONS COMPRISING THE DERIVATIVES AND THEIR USE” (NHWA PHARMA. CORPORATION, priority 2008, published 2011).

Assay [1] deals with opioid receptor subtype κ (Homo sapiens, UniProt P41145). The assay can be described thus: Competitive binding to opioid receptor subtype κ, [3H]Diprenorphine. To be noted: tested concentration 10^−5 mol/L; read-out: κ inhibition percentage of competitive binding. How it is done: (§1) The respective test compounds were added to the sample tube (final concentration of 10^−5M), incubated at 37° C. for 30 min and placed in ice bath to terminate the reaction. The reaction mixture was filtered through GF/C (Whatman) glass fiber filter by vacuum filtration on a Millipore sample collector. The filter was washed three times with 50 mM Tris-HCl (pH7.4), each with 4 ml; dried and transferred into a 0.5 ml Eppendorf tube, in which 0.5 ml lipophilic scintillation fluid was added. Radioactivity was detected by a LS6500 scintillation counter. Each concentration had three duplicate test tubes and each separate test was repeated 3 to 4 times.
(§2) Specific binding CMP value for each sample tube=overall binding CPM value for each sample tube−CPM value of non-specific binding tube.
(§3) [Inhibition percentage of competitive binding between the test compound and different opioid receptor subtypes (%)=(100%−specific binding (CPM value)of sample tube/specific binding(CPM value)of solvent group×100%)]
(§4) Average was taken for each test drug from three duplicate tubes; each test was repeated two or more times.

Assay [2] has as its system Kunming mice. The assay can be described thus: Acetic acid-induced abdominal writhing test in mice. Format: in vivo. Here is the method: Kunming mice, SPF KM mice purchased from […] SLAC LABORATORY ANIMAL CO. LTD and kept in normal environment.
The compounds were dissolved in water for injection at a concentration of 4 mg/ml, 2 mg/ml and 1 mg/ml and were given intragastrically to animals.
(§5) Three different doses (10, 20, and 40 mg/kg) were administered to the test groups.
Aspirin was used as a positive control and acetic acid writhing test was used.
30 mice (half male and half female) weighing 18-23 g were divided into five groups, including negative control group, positive control group, low dose group, medium dose group and high dose group:
Mice in test group received test drug (10 mg/kg, 20 mg/kg, 40 mg/kg) via intragastric administration. Negative control group received physiological saline (20 ml/kg) via oral administration. Positive control group received aspirin (200 mg/kg) via oral administration. One hour later, each group received 0.7% acetic acid 10 ml/kg intraperitoneally. Five minutes later, the number of writhes was counted within the subsequent 15 min period; inhibition percentage of writhing response in each test group was calculated by the following equation: […]
(An intraperitoneal irritant provokes the stretching counted in writhing tests.)

The target in assay [3] is T1, 5-HT2A receptor (Homo sapiens, UniProt P28223).
T1 construct: expressed in transfected cells; host or cells: HEK293
Briefly: In-vitro competitive binding to 5-HT2A receptor, [3H]-Ketanserin, transformed HEK293 cells. To be noted: for inhibition at 10 µM: read-out: 5-HT2A [3H]-Ketanserin inhibition percentage; for IC50 / Ki: affinity to 5-HT2A receptor, concentration gradient test; for inhibitory activity on 5-HT2A (in words): compared with Aripiprazole. Here is the method: All test samples were dissolved in DMSO at a concentration of 0.01 mol/L, and then diluted with deionized water to 100 umol/L.
HEK293 cells were transformed with plasmid carriers containing the gene coding for 5-HT2A receptor protein by using calcium phosphate transformation. Stable cell strains which could stably express 5-HT2A receptor protein were obtained from the transformed cells by cultivating in a culture media containing G418, selecting monoclones of the cell and performing radioactive ligand binding assay.
Beckman LS 6500 Scintillation Counter.
HEK-293 cells were infected with recombined viruses containing various genes described above. […] Cells were centrifuged at 1000 rpm for 5 min Culture media was discarded, and cell bodies were collected and stored at −20° C. in a freezer. The cell bodies were resuspended with Tris-HCl reaction buffer during assay.
After incubation at 37° C. for 15 min, the reaction mixture was immediately transferred into ice bath to terminate the reaction; the reaction mixture was quickly filtered through GF/C glass cellulose filter on a Millipore cell sample collector, and was then washed with eluting solution (50 mM Tris-HCl, PH 7.7, 3 ml×3) and dried in a microwave for 8-9 min. The filter was transferred into a 0.5 ml centrifuge tube, and 500 μl lipid soluble scintillation fluid was added. The centrifuge tube was allowed to stand in darkness for more than 30 min. Radioactivity was determined by counting Inhibition percentage of each compound on isotope ligand binding was calculated according to the following equation:
inhibition percentage(I %)=cpm of overall binding tube−cpm of compound/cpm of overall binding tube−cpm of nonspecific binding tube×100%.
Each compound was tested in two duplicate test tubes and two separate tests were performed.

In assay [4] the target is opioid receptor subtype δ (Homo sapiens, UniProt P41143). The assay can be described thus: Competitive binding to opioid receptor subtype δ, [3H]Diprenorphine. To be noted: tested concentration 10^−5 mol/L; read-out: δ inhibition percentage of competitive binding. Here is the method: as §1, §2, §3
Average was taken for each test drug from three duplicate tubes; each test was repeated two or more times. Data were presented as mean±SE and statistical comparison was made by ANOVA.

Assay [5] deals with opioid receptor subtype μ (Homo sapiens, UniProt P35372). Briefly: Competitive binding to opioid receptor subtype μ, [3H]Diprenorphine. The following applies: tested concentration 10^−5 mol/L; read-out: μ inhibition percentage of competitive binding. Here is the method:
as §1, §2, §3, §4

The test system of assay [6] is mice. Briefly: Sedative effects in mice (spontaneous activities). The format is in vivo. On the set-up: unit not given here. To be noted: single dose 20 mg/kg. How it is done:
Spontaneous activities of the mice were recorded by alternating current tube, Sedative effects were tested after single dose (20 mg/kg).

Assay [7] concerns Kunming mice. Briefly: Hot-plate test in mice. To be noted: 1 h post dose. The format is in vivo. Here is the method: Kunming mice, SPF KM mice were purchased from […] SLAC LABORATORY ANIMAL CO. LTD and kept in normal environment.
The compounds were dissolved in water for injection at a concentration of 4 mg/ml, 2 mg/ml and 1 mg/ml and were given subcutaneously to animals.
as §5
Morphine was used as a positive control and hot plate test was used.
30-40 mice (half male and half female) weighed from 18 to 23 gram were used. First, each mouse was placed on a hot plat at 55° C. to determine basic pain threshold for 2-3 times. Those animals with basic pain threshold of 5-30 s were qualified, unqualified mice were not used. 30 qualified mice were divided into five groups, including negative control group, positive control group, low-dose group, medium-dose group and high-dose group:
Mice in test groups received test sample solution (10 mg/kg, 20 mg/kg, 40 mg/kg) via subcutaneous injection in the neck. Positive control group received subcutaneous injection of morphine (2 mg/kg). One hour later, pain threshold values were determined for mice in each group as post-drug pain threshold. Percentage increase in pain threshold was calculated according to the following equation: […]
(In hot-plate and tail-flick tests a longer latency is read as antinociception.)

The target of assay [8] is T2, 5-HT reuptake by brain synapses (Rattus norvegicus, UniProt P31652).
T2 construct: forehead cortex was obtained for [^3H]5-HT, [^3H]NA reuptake test; from tissue; host or cells: rat (SD) forebrain cortex synaptosomes
The assay can be described thus: [3H]5-HT reuptake test in rat brain synapses. Format: biochemical. The following applies: for inhibitory activity on 5-HT reuptake (in words): at 10 μmol/L, compared with Dutoxetine; for inhibition at 10 µM: final concentration 10 umol/L, rat brain synapses, read-out: 5-HTU [3H] 5-HT reuptake inhibition percentage Mean. How it is done:
The method was as follows:
Male SD rats were killed by cervical dislocation, heads were immediately cut and brains were obtained and put on ice, related brain tissues were dissected (forehead cortex was obtained for [^3H]5-HT, [^3H]NA reuptake test, corpus striatum was obtained for [^3H]DA reuptake).
After the sample was weighed, 10 folds (V/W) ice cold 0.32 mol/L sucrose solution was added.
According to [a. […] 5-HT was added and after incubation in water bath at 37° C. for 10 min, the reaction mixture was immediately taken out of the water bath and 2 ml ice cold 150 mmol/L Tris-HCl was added to terminate the reaction. The sample was collected on a round glass fiber filter by vacuum filtration and washed three times with 3 ml ice cold Tris-HCl buffer. The filter membrane was removed, dried in a far-infrared oven for 15 min, then transferred into a EP tube, in which 1.5 ml scintillation fluid was added, left overnight and detected by a scintillation counter. The test sample was not added into solvent controlled overall binding tube or non-specific binding tube. 50 μl solvent was added into the overall binding tube, and in [^3H] 5-HT reuptake test, 600 μmol/L cocaine was added into the non-specific binding tube.

Where [9] appears, read: 10 mg/kg intragastric administration.
The mark [10] stands for this setting: 20 mg/kg intragastric administration.
Setting [11] is: 40 mg/kg intragastric administration.

Structures are written as SMILES. Like-named read-outs stand apart in the source and are kept apart here. Marks after values point to notes of the source that are not given here.

Broadly, the inhibition is how much of the control response was suppressed. Broadly, the IC50 is the concentration at which inhibition is half-maximal. The Ki is the equilibrium dissociation constant of an inhibitor or competing ligand from its target.

Take `Fc1ccc2c(C3CCN(CCCOn4nnc5ccc(Cl)cc54)CC3)noc2c1` [IV-4, 3-(1-(3-(6-chloro-1H-benzo[d][1,2,3]triazol-1-yloxy)propyl)piperidin-4-yl)-6-fluorobenzo[d]isoxazole]: the inhibition at 10 µM in assay [1] was 37.3 ± 1.7%; in assay [3], 97.4%; in assay [4], 0%; in assay [5], 34.3 ± 1.3%. The “Inhibition percentage of writhing response” value (shortened to “Inhibition percentage”) in assay [2] (setting [9]) was determined as 88.33%; in assay [2] (setting [10]), 99.44%; in assay [2] (setting [11]) it was 97.78%. Moreover, in assay [6], the Sedative effect is given as 70.8*. The “Percentage increase in pain threshold” value in assay [7] (10 mg/kg S.c.) is on record as 51.63%; in assay [7] (20 mg/kg S.c.), 79.36* %; in assay [7] (40 mg/kg S.c.) it was 89.96* %.

For `N#Cc1ccc2cnn(CCCCN3CCC(c4noc5cc(F)ccc45)CC3)c2c1` [II-14, 1-(4-(4-(6-fluorobenzo[d]isoxazol-3-yl)piperidin-1-yl)butyl)-1H-indazole-6-carbonitrile], the inhibition at 10 µM in assay [1] was 7 ± 0.6%; in assay [3] (final concentration 10 umol/L), 99.7%; in assay [4], 0%; in assay [5], 41.9 ± 0.5%; in assay [8], 88.3%. Besides, the results for the “Inhibition percentage” value in assay [2] (setting [9]), in assay [2] (setting [10]) and in assay [2] (setting [11]) were 77.70* %, 69.03% and 85.66** %, respectively. In addition, the IC50 in assay [3] came out at 3.09 nM. In assay [3], the affinity, expressed as Ki, was 2.06 nM. Also, the “inhibitory activity on 5-HT2A (in words)” value in assay [3] was “potent inhibitory activities”. Moreover, the Sedative effect in assay [6] was found to be 20. Besides, the “inhibitory activity on 5-HT reuptake (in words)” value in assay [8] is reported as “potent inhibitory activities”.

Consider `Fc1ccc2c(C3CCN(CCCCn4ccc5ccccc54)CC3)noc2c1` [II-3, 3-(1-(4-(1H-indol-1-yl)butyl)piperidin-4-yl)-6-fluorobenzo[d]isoxazole], for which the “Inhibition percentage” value was 98.65** % in assay [2] (setting [9]), 100.0** % in assay [2] (setting [10]) and 100.0** % in assay [2] (setting [11]). This compound also registered a concentration for half-maximal inhibition (IC50) in assay [3] of 1.66 nM. Besides, the Ki in assay [3] turned out to be 1.12 nM. Also, the “inhibitory activity on 5-HT2A (in words)” value in assay [3] is reported as “potent inhibitory activities”. Besides, the inhibition at 10 µM in assay [3] (final concentration 10 umol/L) came to 100%; in assay [8], 95.9%. The Sedative effect in assay [6] is listed as 35. Besides, the “inhibitory activity on 5-HT reuptake (in words)” value in assay [8] is “potent inhibitory activities”. Besides, the “Percentage increase in pain threshold” value in assay [7] (10 mg/kg S.c.) is reported as 95.48* %; in assay [7] (20 mg/kg S.c.) it was 194** %; in assay [7] (40 mg/kg S.c.), 133%.

For `Fc1ccc2c(C3CCN(CCCCn4cnc5ccc(F)cc54)CC3)noc2c1` [III-2, 6-fluoro-3-(1-(4-(6-fluoro-1H-benzo[d]imidazol-1-yl)butyl)piperidin-4-yl)benzo[d]isoxazole], the inhibition at 10 µM in assay [1] was 44.1 ± 0.2%; in assay [3] (final concentration 10 umol/L), 99.1%; in assay [4], 0%; in assay [5], 59.3 ± 0.7%; in assay [8] it was 86%. Moreover, the “Inhibition percentage” value is 97.61* % in assay [2] (setting [9]), 100.0** % in assay [2] (setting [10]) and 100.0** % in assay [2] (setting [11]). Moreover, the concentration for half-maximal inhibition (IC50) in assay [3] was 3.99 nM. In assay [3], the inhibition constant (Ki) was found to be 2.69 nM. For the same compound, the Sedative effect in assay [6] is 64**. Also, the entries for the “Percentage increase in pain threshold” value in assay [7] (10 mg/kg S.c.), in assay [7] (20 mg/kg S.c.) and in assay [7] (40 mg/kg S.c.) were 92.55* %, 172.2* % and 97.22%, respectively.
